Tested on: male Swiss albino mice
Test: Determination of withdrawal symptoms (naloxone-induced jumps and shakes in opioid-dependent mice)
Type: in vivo
Procedure: Pharmacodyn, 1971, 190, pages 213-218 in male Swiss albino mice (weight 20-25 g, Harlan Iberica, S. Feliu de Codinas, Barcelona, Spain).
Opioid dependency is developed in the mice by intraperitoneal administration of the opioid in a suitable dose known to those skilled in the art, e.g. 5 mg/kg/day for 4 consecutive days for morphine. Withdrawal symptoms are then induced by the intravenous administration of a suitable opioid antagonist in a dose known to those skilled in the art, for example, 2 mg/kg naloxone in case of morphine, 30 minutes after the administration of the final dose of the opioid is completed.
In the 30 minute period following the naloxone administration the mice show typical withdrawal symptoms, namely jumps and shakes (of the wet dog shake type), which are counted and registered.
The active substance is administered in combination with the opioid to the mice for 4 consecutive days. After the administration of 2 mg/kg naloxone 30 minutes after the administration of the final dose of the active substance in combination with the opioid has been completed, the mice are closely watched for withdrawal symptoms, namely jumps and shakes (of the wet dog shake type), which are then counted and registered.
The influence of the active substance in combination with an opioid on withdrawal symptoms has been determined as described above.

| SMILES | withdrawal symptoms usually associated with the administration of opioids (morphine) (co-administration with morphine, administered amount of the opioid not reduced, mice) | Number of Jumps (morphine 5 mg/kg/day s.c. over 4 days, 2 mg/kg naloxone 30 min after final dose, counted in the following 30 minute period) | Number of shakes (morphine 5 mg/kg/day s.c. over 4 days, 2 mg/kg naloxone 30 min after final dose, wet dog shake type, counted in the following 30 minute period) |
| --- | --- | --- | --- |
| CN(C)CCOC(c1ccccc1)c1ccnn1C.O=C(O)CC(O)(CC(=O)O)C(=O)O (racemic) [Example 1, (±)-5-{α-[2-(dimethylamino)ethoxy]benzyl}-1-methyl-1H-pirazole citrate] | significantly reduced | – | – |
| CN1CC[C@]23c4c5ccc(O)c4O[C@H]2[C@@H](O)C=C[C@H]3[C@H]1C5 [Morphine] | – | 6.6 | 16.3 |

— US20080200693A1, “Derivatives of Aryl (or Heteroaryl) Azolylcarbinols (in Particular Cizolirtin Citrate) for the Treatment of Opioid Addiction” (LABORATORIOS DEL DR. ESTEVE S.A., priority 2004, published 2008)
